Data from ChEMBL document CHEMBL3098092, “Fluorescent probes of the isoxazole-dihydropyridine scaffold: MDR-1 binding and homology model” (Bioorg Med Chem Lett, 2014).

Legend:
[1] = Drug uptake in human SH-SY5Y cells at 1 uM after 90 mins by confocal fluorescence microscopy analysis; assay type: ADME, cell-based; details: 1.5 h
[2] = biological target: MDR-1 (P-glycoprotein, ABCB1) (Homo sapiens, UniProt P08183); assay: Inhibition of MDR-1 (unknown origin) expressed in human Caco2 cells using Calcein-AM at 50 uM preincubated for 30 mins by fluorescence based PDSP assay relative to control; assay type: cell-based; details: Caco-2 cells expressing MDR-1, probe Calcein-AM
[3] = Drug uptake in human SH-SY5Y cells at 10 uM after 90 mins by confocal fluorescence microscopy analysis; assay type: ADME, cell-based; details: 1.5 h

MDR-1 (P-glycoprotein, ABCB1), sequence (P08183 whole entry): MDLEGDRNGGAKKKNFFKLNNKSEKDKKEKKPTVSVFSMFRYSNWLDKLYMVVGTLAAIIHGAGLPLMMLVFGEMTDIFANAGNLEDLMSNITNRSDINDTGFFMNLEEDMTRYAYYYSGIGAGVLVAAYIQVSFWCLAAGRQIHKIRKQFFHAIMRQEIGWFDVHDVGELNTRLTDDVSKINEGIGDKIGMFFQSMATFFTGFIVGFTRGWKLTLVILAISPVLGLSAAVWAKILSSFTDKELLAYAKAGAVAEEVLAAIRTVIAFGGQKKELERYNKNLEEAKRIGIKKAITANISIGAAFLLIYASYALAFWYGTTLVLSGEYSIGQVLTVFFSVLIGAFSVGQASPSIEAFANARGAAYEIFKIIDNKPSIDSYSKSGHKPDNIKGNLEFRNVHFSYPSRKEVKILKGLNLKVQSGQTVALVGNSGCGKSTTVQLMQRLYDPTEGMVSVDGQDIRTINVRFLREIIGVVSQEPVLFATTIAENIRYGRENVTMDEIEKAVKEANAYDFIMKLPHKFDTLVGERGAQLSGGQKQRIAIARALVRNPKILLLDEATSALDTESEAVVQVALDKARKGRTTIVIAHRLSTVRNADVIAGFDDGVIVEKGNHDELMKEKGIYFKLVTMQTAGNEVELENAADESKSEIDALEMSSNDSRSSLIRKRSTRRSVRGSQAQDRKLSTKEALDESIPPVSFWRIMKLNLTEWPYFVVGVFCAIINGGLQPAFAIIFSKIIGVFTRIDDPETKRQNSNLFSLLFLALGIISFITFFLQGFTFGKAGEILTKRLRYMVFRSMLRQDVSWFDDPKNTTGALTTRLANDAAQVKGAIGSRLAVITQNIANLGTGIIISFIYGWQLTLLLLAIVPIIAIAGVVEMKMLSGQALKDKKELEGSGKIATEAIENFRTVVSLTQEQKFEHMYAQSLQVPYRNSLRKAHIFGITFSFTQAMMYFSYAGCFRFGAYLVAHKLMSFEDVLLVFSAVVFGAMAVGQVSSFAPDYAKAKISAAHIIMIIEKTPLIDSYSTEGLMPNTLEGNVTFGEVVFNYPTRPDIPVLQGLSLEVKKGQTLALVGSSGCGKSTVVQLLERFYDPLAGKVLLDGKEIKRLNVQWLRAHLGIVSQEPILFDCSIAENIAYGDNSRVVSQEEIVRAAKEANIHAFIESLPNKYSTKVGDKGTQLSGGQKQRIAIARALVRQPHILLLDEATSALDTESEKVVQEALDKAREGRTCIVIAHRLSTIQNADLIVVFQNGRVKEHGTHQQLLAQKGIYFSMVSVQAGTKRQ

| Drug uptake [1] | inhibition at 30 min, 50 µM [2] | Drug uptake [3] | Structure (SMILES) |
| --- | --- | --- | --- |
| Active | – | – | CCOC(=O)C1=C(C)NC(C)=C(C(=O)NCCCCCCNS(=O)(=O)c2ccc(-c3c4ccc(N(CC)CC)cc4[o+]c4cc(N(CC)CC)ccc34)c(S(=O)(=O)[O-])c2)C1c1c(-c2ccccc2)noc1C (stereo not drawn) |
| – | 63% | Active | CCOC(=O)C1=C(C)NC(C)=C(C(=O)NCCCCCCCCNS(=O)(=O)c2cccc3c(N(C)C)cccc23)C1c1c(-c2ccccc2)noc1C (stereo not drawn) |
